Laboratory results from publication PMC13672995, “NCR13 peptide protects soybean against Cercospora sojina using multi-faceted modes of action and additive interaction with chemical fungicides” (Journal of Experimental Botany, 2025).
Values after ≈ are worked out from the molar mass of the structure shown. Like-named read-outs stand apart in the source and are kept apart here. Where a SMILES comes first, the peptide text is derived from it.

Experiments:
[1] = test system: C. sojina QoI fungicide-resistant isolate Cs350; format: cell-based, Cercospora sojina; conditions: for MIC (μM) against C. sojina, Fungicide resistant, Cs350: 48 h; for fold increase of MIC with increasing iron concentration: FeSO4 in SFM
Description: (§1) In vitro antifungal activity of AFPs and QoI fungicides was determined using 96-well plate assays as described ([Velivelli et al., 2020]) with slight modifications. Briefly, 2- to 3-week-old C. sojina was used to make a conidial suspension in 2× SFM at the final concentration of ∼10^5 conidia ml^−1. Simultaneously, peptide dilutions (in water) at various concentrations were made. Fungicides were dissolved in 50% acetone and 50% water to make a stock solution of 500 µM, and serial dilutions were made in water as needed. The peptide–conidia or the fungicide–conidia mixture at the ratio of 1:1 (45 µl:45 µl) was added in a 96-well plate and incubated at room temperature for 48 h, after which MICs of the peptides/fungicides were calculated based on microscopy as well as the resazurin cell viability assay ([Velivelli et al., 2020]).

[2] = test system: C. sojina QoI fungicide-sensitive isolate Cs320; experiment: microbe, parasite or virus in culture; format: cell-based, Cercospora sojina; conditions: for MIC (μM) against C. sojina isolates, Fungicide sensitive, Cs320 / MIC: 48 h; for MIC: Cercospora sojina, read-out: MIC (µM) against Fungicide sensitive C. sojina isolate (Cs320); for MIC (µM) against Fungicide sensitive C. sojina isolate (Cs320): QoI fungicides, determined in 2 days, 0.02 µM lowest concentration tested
Description: as §1

[3] = test system: C. sojina Cs350 (fungicide resistant); experiment: Peptide-fungicide checkerboard assay; format: cell-based, Cercospora sojina; conditions: for MIC: Cercospora sojina, SHAM 60 µg ml–1, microscopy, read-out: Individual MIC; for MIC / interaction with NCR13_PFV1 by FIC index: 96 h; for MIC / FIC score: Cs350, 4 d; for interaction with NCR13_PFV1 by FIC index: Cs350, in vitro
Description: Synergy between NCR13_PFV1 and the widely used QoI foliar fungicides, azoxystrobin (Sigma-Aldrich, Cat No: 31697), trifloxystrobin (Sigma-Aldrich, Cat No: 46447), and pyraclostrobin (Sigma-Aldrich, Cat No: 33696), were evaluated using checkerboard assays. This assay was performed in a 96-well plate and the preparation of conidial suspension, peptide dilutions, and fungicide dilutions were similar to the in vitro antifungal activity assay described above. The presence of an alternative respiration pathway allows some fungi including C. sojina to germinate even in the presence of a high dose of QoI fungicides in vitro ([Ziogas et al., 1997]; [Zhang et al., 2012]). Therefore, to prevent alternative respiration in C. sojina, salicylhydroxamic acid (SHAM) was added in each reaction at the final concentration of 60 µg ml^–1 ([Zhang et al., 2012]). The conidia, peptide, fungicide, and SHAM were added in a 96-well plate at the v/v ratio of 4:1:1:2 (50 µl:12.5 µl:12.5 µl:25 µl) in the final reaction volume of 100 µl, and the plate was incubated at room temperature for 96 h (4 d). After 96 h, MIC values of the peptide–fungicide combination, peptide alone, and fungicide alone were calculated based on microscopy as well as the resazurin cell viability assay. The fractional inhibitory concentration (FIC) index was calculated using the formula FIC = (MICA+B/MICA) + (MICB+A/MICB), where MICA and MICB are the MIC for peptide (A) alone and fungicide (B) alone, respectively, MICA+B is the MIC for peptide in combination with fungicide (A+B), and MICB+A is the MIC for fungicide in combination with peptide (B+A). The FIC index was interpreted as: synergistic, ≤0.5; additive, >0.5–1.0; indifferent, >1 to <4.0; or antagonistic, ≥4.0.

[4] = Heme-peptide binding assay (colour change); conditions: equimolar heme and peptide, 100 µM, 1 h, room temperature
Description: Heme solutions were freshly prepared by dissolving hemin chloride (Sigma Cat No: 3741) in 0.1 M NaOH and used within an hour after preparation. Two heme-sequestering peptides, NCR247 and NCR455 ([Montiel et al., 2017]; [Sankari et al., 2022]), were used as positive controls, and water-only treatment as a negative control. The equimolar concentration of heme and peptide (100 µM) or water were mixed and incubated at room temperature for 1 h. When dissolved in NaOH, heme is light to dark brown in color; however, when it binds to a peptide, the color changes to reddish-brown as described by [Sankari et al. (2022)]. The change in color of heme to reddish-brown indicated the heme binding ability of the peptide.

[5] = Peroxidase assay (TMB substrate); format: biochemical; conditions: heme 5 µM, peptide 5 µM, absorption at 370 nm and 652 nm
Description: A Pierce TMB substrate kit (Thermo Scientific) was used to measure the peroxidase activity of heme. In a transparent 96-well plate, 50 µl of TMB substrate and 50 µl of […] were added followed by addition of heme (5 µM) or peptides plus heme (5 µM each). The reaction progression was measured in the Tecan plate reader, by recording UV-vis absorption values at 370 nm and 652 nm for every minute up to 1 h.

[6] = pair pyraclostrobin / NCR13_PFV1

Compound: CC[C@H](C)[C@H](NC(=O)[C@H](CCCNC(=N)N)NC(=O)[C@H](CS)NC(=O)[C@H](CCCNC(=N)N)NC(=O)CNC(=O)[C@@H](N)CO)C(=O)N[C@@H](CC(C)C)C(=O)N[C@@H](Cc1ccccc1)C(=O)N[C@@H](CCCNC(=N)N)C(=O)N[C@@H](Cc1c[nH]c2ccccc12)C(=O)N[C@@H](Cc1ccccc1)C(=O)N[C@@H](Cc1c[nH]c2ccccc12)C(=O)N[C@H](C(=O)N[C@@H](CCCCN)C(=O)N[C@@H](CC(N)=O)C(=O)N[C@@H](CS)C(=O)O)[C@@H](C)O [GMA1C_V2] (H-SGRCRILFRWFWTKNC-OH)
- MIC (μM) against C. sojina, Fungicide resistant, Cs350 [1]: 6 µM (≈ 12.4 µg/mL)

Compound: CC[C@H](C)[C@H](NC(=O)[C@H](CCCNC(=N)N)NC(=O)[C@H](CS)NC(=O)[C@H](CCCNC(=N)N)NC(=O)CNC(=O)[C@@H](N)CO)C(=O)N[C@@H](CC(C)C)C(=O)N[C@@H](Cc1ccccc1)C(=O)N[C@@H](CCCNC(=N)N)C(=O)N[C@@H](Cc1c[nH]c2ccccc12)C(=O)N[C@@H](Cc1ccc(O)cc1)C(=O)N[C@@H](Cc1ccccc1)C(=O)N[C@H](C(=O)N[C@@H](CCCCN)C(=O)N[C@@H](CC(N)=O)C(=O)N[C@@H](CS)C(=O)O)[C@@H](C)O [GMA1C_V3] (H-SGRCRILFRWYFTKNC-OH)
- MIC (μM) against C. sojina, Fungicide resistant, Cs350 [1]: 6 µM (≈ 12.3 µg/mL)

Compound: CC[C@H](C)[C@H](NC(=O)[C@H](CCCNC(=N)N)NC(=O)[C@@H](NC(=O)[C@H](Cc1ccccc1)NC(=O)[C@H](Cc1c[nH]c2ccccc12)NC(=O)[C@H](Cc1ccccc1)NC(=O)[C@H](CCCNC(=N)N)NC(=O)[C@H](CCCNC(=N)N)NC(=O)[C@H](CC(C)C)NC(=O)[C@H](Cc1ccccc1)NC(=O)CNC(=O)[C@H](CCCCN)NC(=O)[C@H](CS)NC(=O)[C@H](CCCNC(=N)N)NC(=O)CNC(=O)CN)[C@@H](C)O)C(=O)N[C@@H](CS)C(=O)O [GMA4CG_V7] (H-GGRCKGFLRRFWFTRIC-OH)
- MIC (μM) against C. sojina, Fungicide resistant, Cs350 [1]: 6 µM (≈ 12.6 µg/mL)

Compound: CC[C@H](C)[C@H](NC(=O)[C@H](CCCNC(=N)N)NC(=O)[C@@H](NC(=O)[C@H](Cc1c[nH]c2ccccc12)NC(=O)[C@H](Cc1ccc(O)cc1)NC(=O)[C@H](Cc1c[nH]c2ccccc12)NC(=O)[C@H](CCCNC(=N)N)NC(=O)[C@H](CCCNC(=N)N)NC(=O)[C@H](CC(C)C)NC(=O)[C@H](Cc1ccccc1)NC(=O)CNC(=O)[C@H](CCCCN)NC(=O)[C@H](CS)NC(=O)[C@H](CCCNC(=N)N)NC(=O)CNC(=O)CN)[C@@H](C)O)C(=O)N[C@@H](CS)C(=O)O [GMA4CG_V8] (H-GGRCKGFLRRWYWTRIC-OH)
- MIC (μM) against C. sojina, Fungicide resistant, Cs350 [1]: 6 µM (≈ 13 µg/mL)

Compound: C[C@H](NC(=O)CN)C(=O)N[C@@H](CS)C(=O)N[C@@H](Cc1c[nH]cn1)C(=O)N[C@@H](CCCNC(=N)N)C(=O)N[C@@H](CCC(N)=O)C(=O)NCC(=O)N[C@@H](Cc1ccccc1)C(=O)NCC(=O)N[C@@H](Cc1ccccc1)C(=O)N[C@@H](C)C(=O)N[C@@H](Cc1c[nH]c2ccccc12)C(=O)N[C@@H](Cc1ccccc1)C(=O)N[C@@H](Cc1c[nH]c2ccccc12)C(=O)N[C@@H](Cc1ccc(O)cc1)C(=O)N[C@@H](CCCCN)C(=O)N[C@@H](CCCCN)C(=O)N[C@@H](CS)C(=O)O [GMA5AC_V1] (H-GACHRQGFGFAWFWYKKC-OH; N-terminus and C-terminus assumed)
- MIC (μM) against C. sojina, Fungicide resistant, Cs350 [1]: 6 µM (≈ 13.2 µg/mL)

Compound: C[C@H](NC(=O)CN)C(=O)N[C@@H](CS)C(=O)N[C@@H](Cc1c[nH]cn1)C(=O)N[C@@H](CCCNC(=N)N)C(=O)N[C@@H](CCC(N)=O)C(=O)NCC(=O)N[C@@H](Cc1ccccc1)C(=O)NCC(=O)N[C@@H](Cc1ccccc1)C(=O)N[C@@H](C)C(=O)N[C@@H](Cc1ccccc1)C(=O)N[C@@H](Cc1ccccc1)C(=O)N[C@@H](Cc1ccccc1)C(=O)N[C@@H](Cc1ccc(O)cc1)C(=O)N[C@@H](CCCCN)C(=O)N[C@@H](CCCCN)C(=O)N[C@@H](CS)C(=O)O [GMA5AC_V2] (H-GACHRQGFGFAFFFYKKC-OH; N-terminus and C-terminus assumed)
- MIC (μM) against C. sojina, Fungicide resistant, Cs350 [1]: 6 µM (≈ 12.7 µg/mL)

Compound: CC(C)C[C@H](NC(=O)[C@H](CS)NC(=O)[C@H](C)NC(=O)CN)C(=O)N[C@@H](CCCCN)C(=O)N[C@@H](CC(N)=O)C(=O)N[C@@H](CCCNC(=N)N)C(=O)N[C@@H](Cc1c[nH]cn1)C(=O)N[C@@H](CO)C(=O)N[C@@H](CCCCN)C(=O)N[C@@H](Cc1c[nH]cn1)C(=O)N[C@@H](Cc1ccc(O)cc1)C(=O)NCC(=O)N[C@@H](Cc1c[nH]c2ccccc12)C(=O)N[C@@H](Cc1ccccc1)C(=O)N[C@@H](Cc1c[nH]c2ccccc12)C(=O)N[C@@H](Cc1ccc(O)cc1)C(=O)N[C@@H](Cc1ccc(O)cc1)C(=O)N[C@@H](CCCNC(=N)N)C(=O)N[C@@H](Cc1c[nH]cn1)C(=O)N[C@@H](CS)C(=O)N[C@@H](Cc1ccc(O)cc1)C(=O)O [GMAOe1C_V1] (H-GACLKNRHSKHYGWFWYYRHCY-OH; N-terminus and C-terminus assumed)
- MIC (μM) against C. sojina, Fungicide resistant, Cs350 [1]: 3 to 6 µM

Compound: CC(C)[C@H](NC(=O)[C@H](CCCCN)NC(=O)[C@@H]1CCCN1C(=O)[C@H](CCCCN)NC(=O)[C@H](CCCNC(=N)N)NC(=O)[C@H](CS)NC(=O)[C@H](C)NC(=O)[C@H](Cc1ccccc1)NC(=O)[C@H](CCCCN)NC(=O)[C@@H](N)CCCCN)C(=O)N1CCC[C@H]1C(=O)N[C@@H](CCCCN)C(=O)N[C@@H](CS)C(=O)O [NCR13_V7] (H-KKFACRKPKVPKC-OH; N-terminus and C-terminus assumed)
- MIC (μM) against C. sojina isolates, Fungicide sensitive, Cs320 [2]: 6 µM (≈ 9.2 µg/mL)
- MIC (μM) against C. sojina, Fungicide resistant, Cs350 [1]: 12 µM (≈ 18.4 µg/mL)
- fold increase of MIC with increasing iron concentration [1]: 2 fold

Compound: N=C(N)NCCC[C@H](NC(=O)[C@H](CS)NC(=O)[C@H](Cc1c[nH]c2ccccc12)NC(=O)[C@H](Cc1ccccc1)NC(=O)[C@H](CCCCN)NC(=O)[C@@H](N)CCCCN)C(=O)N[C@@H](CCCCN)C(=O)N1CCC[C@H]1C(=O)N[C@@H](CCCCN)C(=O)N[C@@H](Cc1c[nH]c2ccccc12)C(=O)N1CCC[C@H]1C(=O)N[C@@H](CCCCN)C(=O)N[C@@H](CS)C(=O)O [NCR13_V9] (H-KKFWCRKPKWPKC-OH; N-terminus and C-terminus assumed)
- MIC (μM) against C. sojina isolates, Fungicide sensitive, Cs320 [2]: 3 µM (≈ 5.21 µg/mL)
- MIC (μM) against C. sojina, Fungicide resistant, Cs350 [1]: 6 µM (≈ 10.4 µg/mL)
- fold increase of MIC with increasing iron concentration [1]: 2 fold

Compound: COC(=O)N(OC)c1ccccc1COc1ccn(-c2ccc(Cl)cc2)n1 [Pyraclostrobin, pyraclostrobin]
- MIC [2]: < 0.02 µM
- MIC (µM) against Fungicide sensitive C. sojina isolate (Cs320) [2]: <0.02 µM
- MIC [3, 6]: 24 µM
- interaction with NCR13_PFV1 by FIC index [3]: additive (additive, >0.5–1.0)
- FIC score [3, 6]: ≤ 1

Compound: CON=C(C(=O)OC)c1ccccc1CON=C(C)c1cccc(C(F)(F)F)c1 [Trifloxystrobin, trifloxystrobin]
- MIC [2]: < 0.02 µM
- MIC (µM) against Fungicide sensitive C. sojina isolate (Cs320) [2]: <0.02 µM
- MIC ([3]; pair trifloxystrobin / NCR13_PFV1, highest fungicide concentration 48 µM): > 48 µM
- interaction with NCR13_PFV1 by FIC index [3]: additive (additive, >0.5–1.0)
- FIC score ([3]; pair trifloxystrobin / NCR13_PFV1): ≤ 1

Compound: RNGCIVDARCPYQKCSYPLYCRRR [NCR455, reference compound]
- heme binding (colour change of heme from brown to reddish-brown) [4]: visible color change of heme from brown to reddish-brown
- peroxidase activity of heme and FeSO4 in the presence of peptide [5]: reduced or stopped
